Patent US20130005676A1 (UNIVERSITY OF ROCHESTER, priority 2009, published 2013)
Entries after “also recorded” stand apart in the source; their conditions may differ.

Experiments:
[1] = tested on: mice with inflammatory pain (CFA); test: Inflammatory pain (CFA in paw): mechanical allodynia (Von Frey) and thermal hyperalgesia; assay type: in vivo
From the text: Peripheral inflammation was induced by injection of Complete Freud Adjuvant (CFA, mixed with an equal amount of oil, […], Jackson labs) (Raghavendra et al., “Complete Freunds Adjuvant-Induced Peripheral Inflammation Evokes Glial Activation and Proinflammatory Cytokine Expression in the CNS,” Eur. J. Neurosci. 20:467-473 (2004), which is hereby incorporated by reference in its entirety). […] Neuropathic pain was induced by ligation of the sciatic nerve with 4.0 polypropylene suture in mice sedated with ketamine (60 mg/kg, i.p.) and xylazine (10 mg/kg, i.p.) (Bennett et al., “A Peripheral Mononeuropathy in Rat that Produces Disorders of Pain Sensation Like Those Seen in Man,” Pain 33:87-107 (1988); Martucci et al., “The Purinergic Antagonist PPADS Reduces Pain Related Behaviours and Interleukin-1 beta, Interleukin-6, iNOS and nNOS Overproduction in Central and Peripheral Nervous System After Peripheral Neuropathy in Mice,” Pain 137:81-95 (2008), which are hereby incorporated by reference in their entirety).
Mechanical allodynia was evaluated using repeated stimulations with a Von Frey filament exerting 0.02 grams of force onto the plantar surface (Colburn et al., “The Effect of Site and Type of Nerve Injury on Spinal Glial Activation and Neuropathic Pain Behavior,” Exp. Neurol. 157:289-304. (1999), which is hereby incorporated by reference in its entirety). The percentage of negative responses of a total of 10 trials was calculated for each foot. Thermal hyperalgesia was assessed using an Analgesymeter (Ugo Basile, Comerio, Italy) (Stein et al., “Intrinsic Mechanisms of Antinociception in Inflammation: Local Opioid Receptors and Beta-Endorphin,” J. Neurosci. 10:1292-1298 (1990), which is hereby incorporated by reference in its entirety). In short, a mobile radiant heat source was focused on the hind paw, and the paw withdrawal latencies were defined as the time taken by the mouse to remove its hind paw from the heat source (max 20 sec to avoid tissue damage). The paw withdrawal was repeated three times for each foot and the average calculated. To avoid conditioning to stimulation a 5 min rest period was interposed between each trial in both thermal and mechanical tests. Behavioral parameters were evaluated prior to intraplantar injection of CFA or nerve ligation (i.e. day 0), and again on day 3-4 in mice receiving the CFA injection, and at day 5-7 in mice with nerve ligation unless otherwise noted. Prior to injection of CCPA, saline, or acupuncture in the Zusanli point, the mice were placed in a restraining under light isoflurane anesthesia (˜1%). The total duration of anesthesia was ˜2 min and mice with inflammatory, neurogenic pain, and their controls were treated similarly. 2-chloro-N6-cyclopentyl-adenosine (CCPA, 0.1 mM, 20 μl) was injected in the Zusanli point ˜5 min before acupuncture. […] The needle was slowly rotated ˜2 time (˜20-30 sec) every 5 min for a total of 30 min during an acupuncture session. A microdialysis probe (MD-2211, Bioanalytical systems, West Lafayette, Ind.) was implanted 1-3 hrs prior to collection of microdialysis samples. The microdialysis probe was implanted in a distance of 0.4-0.6 mm from the Zusanli point. The microdialysis probe was perfused with Ringer's solution at a rate of 1 μl per minute. The microdialysates were collected on ice and the perfusate collected over a 30 min period (30 μl) was immediately frozen at −80° C. until HPLC analysis. Deoxycoformycin was administered in a dose of 50 mg/kg i.p. 30 min prior to acupuncture.

[2] = tested on: inflammatory pain, rat formalin test; settings: local injection; cited from earlier work
[3] = tested on: mice with neuropathic pain; test: Neuropathic pain (sciatic nerve ligation): mechanical allodynia and thermal hyperalgesia; assay type: in vivo; settings: WT mice, combined with acupuncture
Experimental: Peripheral inflammation was induced by injection of Complete Freud Adjuvant (CFA, mixed with an equal amount of oil, total volume 0.1 ml) in the plantar surface of the left hind paw of mice (25-30 g, Jackson labs) (Raghavendra et al., “Complete Freunds Adjuvant-Induced Peripheral Inflammation Evokes Glial Activation and Proinflammatory Cytokine Expression in the CNS,” Eur. J. Neurosci. 20:467-473 (2004), which is hereby incorporated by reference in its entirety). An equal amount of saline (0.1 ml) was injected in the right hind paw as control. Neuropathic pain was induced by ligation of the sciatic nerve with 4.0 polypropylene suture in mice sedated with ketamine (60 mg/kg, i.p.) and xylazine (10 mg/kg, i.p.) (Bennett et al., “A Peripheral Mononeuropathy in Rat that Produces Disorders of Pain Sensation Like Those Seen in Man,” Pain 33:87-107 (1988); Martucci et al., “The Purinergic Antagonist PPADS Reduces Pain Related Behaviours and Interleukin-1 beta, Interleukin-6, iNOS and nNOS Overproduction in Central and Peripheral Nervous System After Peripheral Neuropathy in Mice,” Pain 137:81-95 (2008), which are hereby incorporated by reference in their entirety).
Mechanical allodynia was evaluated using repeated stimulations with a Von Frey filament exerting 0.02 grams of force onto the plantar surface (Colburn et al., “The Effect of Site and Type of Nerve Injury on Spinal Glial Activation and Neuropathic Pain Behavior,” Exp. Neurol. 157:289-304. (1999), which is hereby incorporated by reference in its entirety). The percentage of negative responses of a total of 10 trials was calculated for each foot. Thermal hyperalgesia was assessed using an Analgesymeter (Ugo Basile, Comerio, Italy) (Stein et al., “Intrinsic Mechanisms of Antinociception in Inflammation: Local Opioid Receptors and Beta-Endorphin,” J. Neurosci. 10:1292-1298 (1990), which is hereby incorporated by reference in its entirety). In short, a mobile radiant heat source was focused on the hind paw, and the paw withdrawal latencies were defined as the time taken by the mouse to remove its hind paw from the heat source (max 20 sec to avoid tissue damage). The paw withdrawal was repeated three times for each foot and the average calculated. To avoid conditioning to stimulation a 5 min rest period was interposed between each trial in both thermal and mechanical tests. Behavioral parameters were evaluated prior to intraplantar injection of CFA or nerve ligation (i.e. day 0), and again on day 3-4 in mice receiving the CFA injection, and at day 5-7 in mice with nerve ligation unless otherwise noted. Prior to injection of CCPA, saline, or acupuncture in the Zusanli point, the mice were placed in a restraining under light isoflurane anesthesia (˜1%). […]

[4] = tested on: mice with inflammatory or neuropathic pain; test: Statements covering both inflammatory and neuropathic pain models; assay type: in vivo; settings: 50 mg/kg i.p. 30 min prior to 30 min acupuncture; vehicle + acupuncture ~[…]
Experimental: Peripheral inflammation was induced by injection of Complete Freud Adjuvant (CFA, mixed with an equal amount of oil, total volume 0.1 ml) in the plantar surface of the left hind paw of mice (25-30 g, Jackson labs) (Raghavendra et al., “Complete Freunds Adjuvant-Induced Peripheral Inflammation Evokes Glial Activation and Proinflammatory Cytokine Expression in the CNS,” Eur. J. Neurosci. 20:467-473 (2004), which is hereby incorporated by reference in its entirety). An equal amount of saline (0.1 ml) was injected in the right hind paw as control. […]
Mechanical allodynia was evaluated using repeated stimulations with a Von Frey filament exerting 0.02 grams of force onto the plantar surface (Colburn et al., “The Effect of Site and Type of Nerve Injury on Spinal Glial Activation and Neuropathic Pain Behavior,” Exp. Neurol. 157:289-304. (1999), which is hereby incorporated by reference in its entirety). The percentage of negative responses of a total of 10 trials was calculated for each foot. Thermal hyperalgesia was assessed using an Analgesymeter (Ugo Basile, Comerio, Italy) (Stein et al., “Intrinsic Mechanisms of Antinociception in Inflammation: Local Opioid Receptors and Beta-Endorphin,” J. Neurosci. 10:1292-1298 (1990), which is hereby incorporated by reference in its entirety). […] The paw withdrawal was repeated three times for each foot and the average calculated. […] Behavioral parameters were evaluated prior to intraplantar injection of CFA or nerve ligation (i.e. day 0), and again on day 3-4 in mice receiving the CFA injection, and at day 5-7 in mice with nerve ligation unless otherwise noted. […]

AMP deaminase = test: HPLC analysis of AMP degradation in muscle/subcutis sections from the Zusanli point; assay type: biochemical, mice; settings: 200 μM, tissue incubated in 1 mM AMP for 45 min
Experimental: The analysis of enzymatic degradation of purines was based on sections (400 μm) of skeletal muscles with overlying subcutis harvested from tissue in the Zusanli point. Each section per well was placed into a 6-well plate with 2 ml (in a phosphate-free buffer (in mM: 2 CaCl2, 120 NaCl, 5 KCL, 10 Glucose, 20 HEPES, pH=7.3) and bubble with 100% O2 containing 1 mM AMP with or without 500 μM deoxycoformycin (Tocris Bioscience, UK). The samples were collected from each well at 0 and 45 min and stored at −80° C. for HPLC analysis. The analyses were carried out on an ESA reverse-phase H584 HPLC system (ESA Inc., USA) and an ESA model 526 UV detector (ESA Inc.) as previously described (Cui et al., “The Organic Cation Transporter-3 is a Pivotal Modulator of Neurodegeneration in the Nigrostriatal Dopaminergic Pathway,” Proc. Nat'l. Acad. Sci. USA 106:8043-8048 (2009); Volonte et al., “Development of an HPLC Method for Determination of Metabolic Compounds in Myocardial Tissue,” J. Pharm. Biomed. Anal. 35:647-653 (2004), which are hereby incorporated by reference in their entirety). Chromatographic separation was achieved by using a Lichrospher® 100 RP-18 column (5 μm, 250 mm×3 mm; Merck, Germany). […] Eluted purines were detected at 260 nm, and the chromatographic peaks were integrated using CoulArray software.

wild type mice = test: Touch sensitivity (Von Frey filaments) after injection in the Zusanli point of wild type mice; assay type: in vivo; settings: 5 mM injected in Zusanli point, tested one hour after injection
Experimental: Using Von Frey Filaments, a baseline for pain threshold was established in the wild type. The mice were then injected with 5 mM of dibut 1-cAMP (db-cAMP) in the zunsanli accu-point. To ensure the proper spread of db cAMP, the mice were tested for pain one hour after injections and assessed for touch sensitivity. The experiment was repeated in the same animals 24 h later and yielded similar results.
Mechanical allodynia was evaluated using repeated stimulations with a Von Frey filament exerting 0.02 grams of force onto the plantar surface (Colburn et al., “The Effect of Site and Type of Nerve Injury on Spinal Glial Activation and Neuropathic Pain Behavior,” Exp. Neurol. 157:289-304. (1999), which is hereby incorporated by reference in its entirety). The percentage of negative responses of a total of 10 trials was calculated for each foot. Thermal hyperalgesia was assessed using an Analgesymeter (Ugo Basile, Comerio, Italy) (Stein et al., “Intrinsic Mechanisms of Antinociception in Inflammation: Local Opioid Receptors and Beta-Endorphin,” J. Neurosci. 10:1292-1298 (1990), which is hereby incorporated by reference in its entirety). […] The paw withdrawal was repeated three times for each foot and the average calculated. […]

Row | reduction of AMP conversion to IMP (AMP deaminase) [%] | reduction of AMP conversion to IMP (AMP deaminase; listed as Deoxycoformycin) | SMILES | tactile or thermal sensitivity when not combined with acupuncture ([1]; CFA, no acupuncture) | effect on duration of acupuncture pain relief, mechanical and thermal stimulation ([1]; WT mice, combined with acupuncture) | pain relief on co-administration with an adenosine kinase inhibitor [2] | effect on duration of acupuncture pain relief, mechanical and thermal stimulation [3] | duration of suppression of mechanical allodynia and thermal pain [4] [h] | sensitivity to touch (wild type mice)
1 | ~50 | approximately 50% | OC[C@H]1O[C@@H](n2cnc3c2NC=NC[C@H]3O)C[C@@H]1O [deoxycoformycin] | does not alter the pain sensitivity; also recorded: no effect | prolonged | augmented the pain relief | prolonged | ~3.0 | 
2 |  |  | CCCC(=O)Nc1ncnc2c1ncn2[C@@H]1O[C@@H]2COP(=O)(O)O[C@H]2[C@H]1OC(=O)CCC [dibutyryl cAMP] |  |  |  |  |  | increased transiently
